We go through 1 compound from paper PMC3137752 (Alcohol (Fayetteville, N.Y.), 2010).

Assay [1] has as its target α6-100R-β3γ2 (α6β3γ2s) (Rattus norvegicus, UniProt P18508+P30191, P30191:R119Q). Nature of the assay: radioligand association/dissociation kinetics, filtration. The class given is binding.
Assay [2] has as its target α6-100R-β3γ2 (α6β3γ2s) (Rattus norvegicus, UniProt P18508+P30191). The description is as above. The class given is binding.

Chain of α6-100R-β3γ2 (α6β3γ2s) (Rattus norvegicus, UniProt P18508+P30191, P30191:R119Q) (P30191 20-453 R119Q): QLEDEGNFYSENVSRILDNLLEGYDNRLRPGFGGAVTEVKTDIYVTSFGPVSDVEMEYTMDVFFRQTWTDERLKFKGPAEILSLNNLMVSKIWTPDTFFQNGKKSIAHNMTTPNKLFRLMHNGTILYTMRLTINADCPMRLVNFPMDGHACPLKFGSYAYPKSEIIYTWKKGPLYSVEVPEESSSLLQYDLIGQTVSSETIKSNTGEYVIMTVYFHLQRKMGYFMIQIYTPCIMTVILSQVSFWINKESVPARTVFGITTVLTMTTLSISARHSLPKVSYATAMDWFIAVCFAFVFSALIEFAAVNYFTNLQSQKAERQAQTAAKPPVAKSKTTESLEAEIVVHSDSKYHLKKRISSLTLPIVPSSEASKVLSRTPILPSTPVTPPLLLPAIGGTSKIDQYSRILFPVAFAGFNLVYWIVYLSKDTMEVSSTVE
Chain of α6-100R-β3γ2 (α6β3γ2s) (Rattus norvegicus, UniProt P18508+P30191, P30191:R119Q) (P18508 39-466): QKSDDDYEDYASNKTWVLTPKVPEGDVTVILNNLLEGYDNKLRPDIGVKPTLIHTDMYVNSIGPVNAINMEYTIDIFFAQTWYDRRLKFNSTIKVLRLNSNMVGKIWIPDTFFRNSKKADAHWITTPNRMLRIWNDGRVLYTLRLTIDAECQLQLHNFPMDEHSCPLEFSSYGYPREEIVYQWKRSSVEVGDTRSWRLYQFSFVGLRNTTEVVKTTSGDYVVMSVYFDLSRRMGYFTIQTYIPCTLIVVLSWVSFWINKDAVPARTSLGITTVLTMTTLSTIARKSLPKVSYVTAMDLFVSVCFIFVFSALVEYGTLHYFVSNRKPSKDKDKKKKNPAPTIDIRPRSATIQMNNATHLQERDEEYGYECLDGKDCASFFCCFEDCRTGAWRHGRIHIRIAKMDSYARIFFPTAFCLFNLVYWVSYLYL
Chain of α6-100R-β3γ2 (α6β3γ2s) (Rattus norvegicus, UniProt P18508+P30191, P30191:R119Q) (P63079 26-473 partner): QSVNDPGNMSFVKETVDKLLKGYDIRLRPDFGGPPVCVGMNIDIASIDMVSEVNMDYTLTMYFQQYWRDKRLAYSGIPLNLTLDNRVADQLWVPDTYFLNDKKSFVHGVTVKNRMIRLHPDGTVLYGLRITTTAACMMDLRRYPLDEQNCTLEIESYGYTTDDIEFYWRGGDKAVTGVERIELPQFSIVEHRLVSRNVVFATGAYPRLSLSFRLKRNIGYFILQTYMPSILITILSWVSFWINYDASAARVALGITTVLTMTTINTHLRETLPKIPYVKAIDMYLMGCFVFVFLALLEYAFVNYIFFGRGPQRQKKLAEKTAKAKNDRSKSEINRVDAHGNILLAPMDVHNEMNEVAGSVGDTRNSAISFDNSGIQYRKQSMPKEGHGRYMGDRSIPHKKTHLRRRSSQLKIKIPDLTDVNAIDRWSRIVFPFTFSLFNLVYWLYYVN
Chain of α6-100R-β3γ2 (α6β3γ2s) (Rattus norvegicus, UniProt P18508+P30191) (P30191 20-453): as the sequence (P30191 20-453 R119Q) above, with Q100R counted along it
Chain of α6-100R-β3γ2 (α6β3γ2s) (Rattus norvegicus, UniProt P18508+P30191) (P18508 39-466): as the sequence (P18508 39-466) above
Chain of α6-100R-β3γ2 (α6β3γ2s) (Rattus norvegicus, UniProt P18508+P30191) (P63079 26-473 partner): as the sequence (P63079 26-473 partner) above

Regarding `CCOC(=O)c1ncn2c1CN(C)C(=O)c1cc(N=[N+]=[N-])ccc1-2` [[^3H]Ro 15-4513], the figures for the dissociation constant (Kd) on α6-100R-β3γ2 (α6β3γ2s) [1] and on α6-100R-β3γ2 (α6β3γ2s) [2] were 1 ± 0.1 nM and 2.4 ± 0.4 nM, respectively.

For orientation: Kd means the concentration at which binding is half-saturated. Low readings indicate a tighter complex, high ones a looser complex.
